Patent US9193673B2, “Derivatives of mesalazine, process of their preparation and their use in the treatment of intestinal inflammatory diseases” (SOFAR SPA, priority 2010, dated 2015)
Values joined by “and” are separate entries in the source; they are usually repeats but may differ in a detail not shown here. Equal entries are not always repeated. “Also recorded” adds a separate entry of the source.

What was measured:
[1] = Stability in simulated gastric and simulated intestinal fluids; type: physicochemical
Protocol: Such study is conducted with the aim of evaluating the stability of the compound (IV) at […] in absence of enzymes of the intestinal bacterial flora.
The stability of the compound (IV) is compared to that of known reference standards.

[2] = Stability of the compound (IV) in storage at 25° C. (60% RH) and at 40° C. (75% RH); type: physicochemical; settings: for Titre % Mean / Titre %: 3 months; for Titre % Mean: mean of samples; for Titre %: single samples
Protocol: The object of such study is the evaluation of the stability of the compound (IV) kept at a temperature equivalent to 25° C. (60% RH) and at 40° C. (75% RH). In particular, such study aims at evaluating the titre of the compound (IV) in the stability test at 25° C. (60% RH) at 3, 6, 9, 12, 18, 24, 36, 48, 60 months and in the stability test accelerated at 40° C. (75% RH) at 3, 6, 9, 12 months.
The compound (IV) is divided into 10 Eppendorfs numbered from 1 to 10, containing about 50 mg of product and stored in a cellar at 25° C. 60% RH.
Other 4 Eppendorfs numbered from 11 to 14, containing about 50 mg of product are introduced into an oven at a temperature equivalent to 40° C. 75% RH.

CCCC(=O)Oc1ccc(N)cc1C(=O)O.Cl [Compound (IV), 5-amino-2-(butyryloxy)benzoic acid]
% Residue ([1]; SGF, 30 min incubation): 97.3 ± 1.1%
% Residue ([1]; SGF, 60 min incubation): 99.9 ± 0.9%
% Residue ([1]; SIF, 30 min incubation): 97.4 ± 4.1%
% Residue ([1]; SIF, 60 min incubation): 103.2 ± 3.5%
Stability in SIF and SGF ([1]; both media): stable in both media
Stability in storage ([2]; 25° C. 60% RH and 40° C. 75% RH): does not seem to be subjected to considerable modifications; also recorded: stable in storage
Titre % Mean ([2]; 25° C. 60% RH): 98.1%
Titre % ([2]; 25° C. 60% RH): 98.2% and 98.1%
Titre % Mean ([2]; 40° C. 75% RH): 101.2%
Titre % ([2]; 40° C. 75% RH): 99.8% and 102.6%
Titre ([2]; time t=0): 99.3%
